Earlier results on one compound are cited in patent US20140056862A1, “NUTRITIONAL COMPOSITIONS HAVING ALPHA-HICA AND ALPHA-KETOGLUTARATE” (Nestec S.A., priority 2011, published 2014).

The test system of the data set is intestinal mammalian target of rapamycin (mTOR); intestinal villi and crypts. The following applies: piglet stressed with LPS.

Turning to `O=C(O)CCC(=O)C(=O)O` [AKG, α-ketoglutarate], the crypt depth result is recorded as “reduced” and the villous height entry was “increased”. Moreover, the “phosphorylation of intestinal mammalian target of rapamycin (mTOR)” value (leading to increased protein synthesis and anti-inflammatory responses) is listed as “increased”.
